{"source": "patent US8293218B2", "about": "“Skin care compositions comprising substituted monoamines” (Conopco, Inc., priority 2010, dated 2012)", "tested_on": "Melanoderm tissue equivalent model MEL-300 containing melanocytes obtained from dark skin individuals", "assay": "Melanoderm tissue equivalent model MEL-300, total melanin content (inhibition of melanogenesis)", "type": "cell-based", "conditions": "Melanocyte, 336 h; 10 μM in maintenance medium, 14 days, total melanin content vs DMSO vehicle control; read-out: Melanoderm (% Reduction at 10 μM)", "protocol": "Melanoderm tissue equivalent model MEL-300 (MatTek: Ashland, Mass.) containing melanocytes obtained from dark skin individuals were cultured as per supplier instructions. Components were added to the maintenance medium phase (no topical treatments) at a final concentration of 10 μM for 14 days at which time the experiment was terminated and the tissues assessed for melanin content. Medium and treatments were changed three times per week. DMSO was utilized as the vehicle control and all treatments were performed at least in duplicate.\nFor quantification of total melanin, each Melanoderm was placed into an individual Eppendorf tube (2 mL) into which 250 μL of Solvable™ tissue solubilizer (Packard Bioscience Co., Cat #6NE9100) was added. Each tube was vortexed and incubated at 60° C. for 18 hours. Each sample was then centrifuged (5-minutes at 13,000 RPMs) to remove any particulates. 100 or 200 μL of supernatant were transferred to a 96 well microtiter plate and the absorbance read at 490 nm. Total melanin content was calculated from a standard curve using synthetic melanin (Sigma Cat #M8631). Data was analyzed for significance using the t-test in Microsoft Excel to generate p-values (p-values less than 0.01 represent 99% confidence, p values of 0.05 represent 95% confidence both of which are statistically significant)."}
{"smiles": "COc1ccc(CNCCc2ccccc2)cc1OC", "note": "[Compound 3a, N-(3,4-dimethoxybenzyl)-2-phenylethanamine]", "values": [{"measurement": "inhibition at 10 µM", "result": 40.3, "unit": "%"}]}
{"smiles": "COc1ccc(CNCCc2ccccc2)cc1", "note": "[Compound 3b, N-(4-methoxybenzyl)-2-phenylethanamine]", "values": [{"measurement": "inhibition at 10 µM", "result": 54.4, "unit": "%"}]}
{"smiles": "c1ccc(CCNCc2cccc(Oc3ccccc3)c2)cc1", "note": "[Compound 3c, N-(3-phenoxybenzyl)-2-phenylethanamine]", "values": [{"measurement": "inhibition at 10 µM", "result": 68.9, "unit": "%"}]}
{"smiles": "COc1ccc(OC)c(CNCCc2ccccc2)c1", "note": "[Compound 3d, N-(2,5-dimethoxybenzyl)-2-phenylethanamine]", "values": [{"measurement": "inhibition at 10 µM", "result": 60.3, "unit": "%"}]}
{"smiles": "Cc1ccc(CNCCc2ccccc2)cc1C", "note": "[Compound 3e, N-(3,4-dimethylbenzyl)-2-phenylethanamine]", "values": [{"measurement": "inhibition at 10 µM", "result": 64.5, "unit": "%"}]}
{"smiles": "c1ccc(CCNCC2CCCCC2)cc1", "note": "[Compound 3f, N-(cyclohexylmethyl)-2-phenylethanamine]", "values": [{"measurement": "inhibition at 10 µM", "result": 69.5, "unit": "%"}]}
{"smiles": "COc1cc(CNCCc2ccccc2)cc(OC)c1", "note": "[Compound 3g, N-(3,5-dimethoxybenzyl)-2-phenylethanamine]", "values": [{"measurement": "inhibition at 10 µM", "result": 51.6, "unit": "%"}]}
{"smiles": "COc1ccc(CCNCCc2ccccc2)cc1OC", "note": "[Compound 3h, 2-(3,4-dimethoxyphenyl)-N-phenethylethanamine]", "values": [{"measurement": "inhibition at 10 µM", "result": 53.1, "unit": "%"}]}
{"smiles": "COc1ccc(CN(C)CCc2ccccc2)cc1OC", "note": "[Compound 7, N-(3,4-dimethoxybenzyl)-N-methyl-2-phenylethanamine]", "values": [{"measurement": "inhibition at 10 µM", "result": 44.4, "unit": "%"}]}
{"smiles": "COc1ccc(CNCCC(C)C)cc1OC", "note": "[Compound 9, N-(3,4-dimethoxybenzyl)-3-methylbutan-1-amine]", "values": [{"measurement": "inhibition at 10 µM", "result": 1.9, "unit": "%"}]}
